# Results published in PMC6914789 (Scientific Reports, 2019).
# Assays:
# Sirt6 [1] = molecular target: T1, Sirt6 (Homo sapiens, UniProt Q8N6T7); assay: crystal structure ([…] Å in Table […]); MS deacetylation assay (activation); assay type: binding
# T1 construct: Sirt6(13–308) for crystals; Sirt6(1-355) for activity
# Sirt6 [2] = molecular target: T1, Sirt6; assay: crystal structure at […] Å; MS deacetylation assay (activation at […]); assay type: binding
# Sirt1 = molecular target: T2, Sirt1 (Homo sapiens, UniProt Q96EB6); assay: MS deacetylation assay with acetyl-p53 peptide; assay type: biochemical
# T2 construct: Full length human Sirt1
# T2 sequence (Q96EB6 2-747): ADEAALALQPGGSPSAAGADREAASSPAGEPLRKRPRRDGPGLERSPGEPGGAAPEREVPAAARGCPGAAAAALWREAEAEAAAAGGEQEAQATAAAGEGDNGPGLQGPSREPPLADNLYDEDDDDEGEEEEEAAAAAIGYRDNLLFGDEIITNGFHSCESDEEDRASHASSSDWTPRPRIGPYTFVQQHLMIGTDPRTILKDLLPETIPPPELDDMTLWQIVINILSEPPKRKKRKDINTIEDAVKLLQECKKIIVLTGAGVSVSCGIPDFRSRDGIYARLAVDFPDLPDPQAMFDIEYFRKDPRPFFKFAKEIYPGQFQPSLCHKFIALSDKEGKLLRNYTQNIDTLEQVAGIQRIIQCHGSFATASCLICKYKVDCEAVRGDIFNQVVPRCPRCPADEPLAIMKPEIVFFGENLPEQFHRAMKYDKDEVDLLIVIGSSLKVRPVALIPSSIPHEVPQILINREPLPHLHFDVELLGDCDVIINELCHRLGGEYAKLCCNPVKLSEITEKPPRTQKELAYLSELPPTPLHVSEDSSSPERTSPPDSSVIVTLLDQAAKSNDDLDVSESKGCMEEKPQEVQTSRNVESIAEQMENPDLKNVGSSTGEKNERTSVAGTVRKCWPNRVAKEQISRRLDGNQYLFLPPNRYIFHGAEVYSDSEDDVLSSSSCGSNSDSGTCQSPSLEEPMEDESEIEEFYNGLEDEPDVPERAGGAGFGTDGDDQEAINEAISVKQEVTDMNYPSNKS
# Sirt3 = molecular target: T3, Sirt3 (Homo sapiens, UniProt Q9NTG7); assay: MS deacetylation assay with acetyl-ACS2 peptide; assay type: biochemical
# T3 construct: residues 118–399
# T3 sequence (Q9NTG7 118-399): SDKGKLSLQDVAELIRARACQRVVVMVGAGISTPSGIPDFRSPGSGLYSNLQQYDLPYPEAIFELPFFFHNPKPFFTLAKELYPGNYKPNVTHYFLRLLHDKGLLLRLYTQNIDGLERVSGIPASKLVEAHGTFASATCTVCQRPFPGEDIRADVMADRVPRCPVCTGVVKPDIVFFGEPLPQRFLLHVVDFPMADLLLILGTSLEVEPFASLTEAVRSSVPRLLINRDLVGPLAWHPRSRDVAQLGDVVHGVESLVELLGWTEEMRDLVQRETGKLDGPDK
# Sirt5 = molecular target: T4, Sirt5 (Homo sapiens, UniProt Q9NXA8); assay: MS desuccinylation assay with succinyl-CPS1 peptide; assay type: biochemical
# T4 construct: residues 34–302
# T4 sequence (Q9NXA8 34-302): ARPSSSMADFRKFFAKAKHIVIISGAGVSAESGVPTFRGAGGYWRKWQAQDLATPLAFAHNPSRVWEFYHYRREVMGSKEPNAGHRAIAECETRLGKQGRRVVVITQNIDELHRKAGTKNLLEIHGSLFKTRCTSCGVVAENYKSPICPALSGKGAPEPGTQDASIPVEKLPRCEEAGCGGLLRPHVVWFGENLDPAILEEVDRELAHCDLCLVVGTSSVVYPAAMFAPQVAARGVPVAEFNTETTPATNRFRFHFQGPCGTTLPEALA
# T1 sequence (Q8N6T7 whole entry): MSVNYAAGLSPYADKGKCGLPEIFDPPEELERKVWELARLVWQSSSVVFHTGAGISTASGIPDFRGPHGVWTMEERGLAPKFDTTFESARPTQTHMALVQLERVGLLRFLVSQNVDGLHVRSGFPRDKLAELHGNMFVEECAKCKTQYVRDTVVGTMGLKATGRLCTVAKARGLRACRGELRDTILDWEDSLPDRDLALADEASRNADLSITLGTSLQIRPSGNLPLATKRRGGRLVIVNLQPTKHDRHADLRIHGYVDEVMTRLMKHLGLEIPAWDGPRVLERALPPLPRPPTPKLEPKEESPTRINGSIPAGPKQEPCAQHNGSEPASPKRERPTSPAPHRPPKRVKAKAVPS
compound,measurement,setting,value
"O=c1c(O[C@@H]2O[C@H](CO)[C@@H](O)[C@H](O)[C@H]2O)c(-c2ccc(O)c(O)c2)oc2cc(O)cc(O)c12 [compound 4, isoquercetin]",crystal structure (1.90 Å in Table 1); MS deacetylation assay (activation),Sirt6 [1],we determined a crystal structure of a Sirt6/ADP-ribose/isoquercetin complex
"Oc1cc(O)c2cc(O)c(-c3ccc(O)c(O)c3)[o+]c2c1 [compound 6, cyanidin]",crystal structure at 2.10 Å; MS deacetylation assay (activation at 20-80 μM),Sirt6 [2],we solved a crystal structure of a Sirt6/ADP-ribose/cyanidin complex
"O=c1c(O)c(-c2ccc(O)c(O)c2)oc2cc(O)cc(O)c12 [compound 1, quercetin]",MS deacetylation assay with acetyl-p53 peptide,Sirt1,Quercetin caused a concentration-dependent inhibition of all Sirtuin isoforms except for Sirt6
same,MS deacetylation assay with acetyl-ACS2 peptide,Sirt3,Quercetin caused a concentration-dependent inhibition of all Sirtuin isoforms except for Sirt6
same,MS desuccinylation assay with succinyl-CPS1 peptide,Sirt5,Quercetin caused a concentration-dependent inhibition of all Sirtuin isoforms except for Sirt6
